Assays:
microorganism = conditions: French Percuflex catheters dip-coated, sterilized with ethylene oxide, stored; for thirty days after being coated; cited from earlier work
Staphylococcus aureus = assay: Zone of inhibition test of gentamicin-coated stainless steel coupon on agar plate; assay type: cell-based; conditions: 4% gentamicin solution in water nebulized onto 0.5" polished 316 stainless steel coupon; incubated at 38° C. for 24 hours; initial S. aureus inoculum 10^5 bacteria per cubic centimeter
From the text: A filter paper disk, or other object, impregnated with a particular antimicrobial agent is applied to an agar medium that is inoculated with the test organism. Where the anti-microbial agent diffuses through the medium, and as long as the concentration of the antimicrobial agent is above the MIC, none of the susceptible organism will grow on or around the disk for some distance. This distance is called a zone of inhibition. […] The diameter of the zone of inhibition is inversely proportional to the MIC.
A 4% gentamicin solution in water was applied to a 0.5″ polished 316 stainless steel coupon using the device described in FIGS. 3A and 3B according to the cycle described in FIG. 10. The stainless steel coupon was then incubated at 38° C. for 24 hours in an agar plate containing an initial Staphylococcus aureus inoculum of 10^5 bacteria per cubic centimeter of solution.

Row | Compound | antimicrobial properties (zone of inhibition) (microorganism) | protective zone of inhibition formed around the coupon (Staphylococcus aureus)
1 | Oc1cc(Cl)ccc1Oc1ccc(Cl)cc1Cl [2,4,4′-tricloro-2-hydroxydiphenyl ether] | produced a zone of inhibition | 
2 | gentamicin |  | approximately 8 mm
